Data published in article PMC10142799, “Synthesis, In Silico and In Vitro Characterization of Novel N,N-Substituted Pyrazolopyrimidine Acetamide Derivatives for the 18KDa Translocator Protein (TSPO)” (Pharmaceuticals, 2023).
Where “and” joins values, the source holds several entries; their conditions need not be identical. Equal entries are not always repeated. Where two headings read alike, the source gives them in different places.

Key:
TSPO = target: T1, TSPO (Homo sapiens, UniProt P30536); experiment: In vitro TSPO binding assay, competition with [3H]PK11195 in membrane of human leukocytes
T1 construct: from tissue; host or cells: isolated human leukocytes (membranes)

[1] = In vitro cytotoxicity (MTT assay) on L-929 cells; assay type: cell-based, mouse; conditions: mouse, L-929 mouse fibroblast cells, L-929, 24 h, MTT, read-out: Cell viability
Method: (§1) Five concentrations of each compound dissolved in 2% of DMSO in culture media (50 μL) were introduced into cell media (96-well plate). The cell cultures treated with ligands were incubated 24 h, and then the media were removed. The cell crudes were measured at 570 nm and 650 nm using a MTT reagent. All procedures and reagents followed ISO 10993-5 and ISO 10993-12.
(§2) 929, mouse fibroblast cells) were cultured in a 96 well plate and treated with 50 […]
(§3) concentration. After incubation at 37 ° C for 24 hours under CO […]
(§4) fluid, the treated culture medium was removed and the absorbance of each samples were measured at 570 and 650 nm using MTT reagent.
(§5) Blank was administered with only 50uL of cell incubation media. As a control, a 50 […]
(§6) n media was administered.
(§7) MTT assay followed ISO 10993 […]
(§8) values of cell viability for GMA 10, GMA 11, GMA 15, DPA

[2] = tested on: L-929 (mouse fibroblast cells); experiment: In vitro cytotoxicity (MTT assay) on L-929 cells; assay type: cell-based; conditions: Mus musculus, read-out: IC50 values of cell viability
Method: as §1, §2, §3, §4, §5, §6, §7, §8

[3] = L929, L-929, 24 h, MTT, same values given in μM

T1 sequence (P30536 whole entry): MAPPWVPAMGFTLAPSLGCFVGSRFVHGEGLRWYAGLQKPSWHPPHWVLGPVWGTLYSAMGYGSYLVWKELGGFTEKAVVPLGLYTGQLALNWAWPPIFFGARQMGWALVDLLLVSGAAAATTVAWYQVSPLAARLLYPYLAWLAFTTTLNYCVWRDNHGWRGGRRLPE

SMILES | Ki (TSPO) [nM] | fold enhancement in affinity compared to DPA-714 (TSPO; ratio of Ki values) [fold] | fold higher affinity compared to PK11195 (TSPO; ratio of Ki values) [fold] | viability at 24 h, 3.125 μg/mL [1] [%] | viability at 24 h, 6.25 μg/mL [1] [%] | viability at 24 h, 12.5 μg/mL [1] [%] | viability at 24 h, 25 μg/mL [1] [%] | viability at 24 h, 50 μg/mL [1] [%] | IC50 ([2]; L929, L-929, 24 h, MTT) [µg/mL] | IC50 [2, 3] [µM] | IC50 ([2]; L929, 24 h)
CCc1cc(CC)n2nc(-c3ccc(F)cc3)c(CC(=O)N(C)CC)c2n1 [GMA 7, 2-(5,7-diethyl-2-(4-fluorophenyl)pyrazolo [1,5-a]pyrimidin-3-yl)-N-ethyl-N-methylacetamide] | 17.1 | – | – | – | – | – | – | – | – | – | –
CCc1cc(CC)n2nc(-c3ccc(F)cc3)c(CC(=O)N(CC)c3ccccc3)c2n1 [GMA 15, 2-(5,7-diethyl-2-(4-fluorophenyl)pyrazolo [1,5-a]pyrimidin-3-yl)-N-ethyl-N-phenylacetamide] | 0.06 | 61 | 22 | 57.9 ± 4.04 | 50.6 ± 2.39 | 26 ± 8.01 | 9.6 ± 1.6 | 6.6 ± 2.15 | 9.73 | 22.6 | –
CCN(CC)C(=O)Cc1c(-c2ccc(OCCF)cc2)nn2c(C)cc(C)nc12 [DPA-714, reference compound] | 3.66 | – | – | 51 ± 4.08 | 47.3 ± 3.44 | 45.2 ± 1.86 | 32.1 ± 2.54 | 11.2 ± 1.94 | 18.6 | 46.7 | –
CCc1cc(CC)n2nc(-c3ccc(F)cc3)c(CC(=O)N(CC)CC)c2n1 [GMA 8, 2-(5,7-diethyl-2-(4-fluorophenyl)pyrazolo [1,5-a]pyrimidin-3-yl)-N,N-diethylacetamide] | 8.79 | – | – | – | – | – | – | – | – | – | –
CCC(C)N(C)C(=O)c1cc2ccccc2c(-c2ccccc2Cl)n1 (centres unmarked) [PK11195, reference compound] | – | – | – | 57.8 ± 5.22 | 49.08 ± 0.43 | 48.18 ± 0.43 | 38.3 ± 4.8 | 32.8 ± 3.14 | – | – | 22.1 µg/mL and 62.7 µM

More lines, main results first:

Ki (TSPO) [nM] | SMILES | fold enhancement in affinity compared to DPA-714 (TSPO; ratio of Ki values) [fold] | fold higher affinity compared to PK11195 (TSPO; ratio of Ki values) [fold] | viability at 24 h, 3.125 μg/mL [1] [%] | viability at 24 h, 6.25 μg/mL [1] [%] | viability at 24 h, 12.5 μg/mL [1] [%] | viability at 24 h, 25 μg/mL [1] [%] | viability at 24 h, 50 μg/mL [1] [%] | IC50 ([2]; L929, L-929, 24 h, MTT) [µg/mL] | IC50 [2, 3] [µM] | IC50 ([2]; L929, 24 h)
13.3 | CCc1cc(CC)n2nc(-c3ccc(F)cc3)c(CC(=O)N(CC)C(C)C)c2n1 [GMA 9, 2-(5,7-Diethyl-2-(4-fluorophenyl)pyrazolo [1,5-a]pyrimidin-3-yl)-N-ethyl-N-isopropyl acetamide] | – | – | – | – | – | – | – | – | – | –
0.9 | C#CCN(CC#C)C(=O)Cc1c(-c2ccc(F)cc2)nn2c(CC)cc(CC)nc12 [GMA 13, 2-(5,7-diethyl-2-(4-fluorophenyl)pyrazolo [1,5-a]pyrimidin-3-yl)-N,N-di(prop-2-yn-1-yl) acetamide] | – | – | – | – | – | – | – | – | – | –
0.18 | CCCN(CCC)C(=O)Cc1c(-c2ccc(F)cc2)nn2c(CC)cc(CC)nc12 [GMA 10, 2-(5,7-diethyl-2-(4-fluorophenyl)pyrazolo [1,5-a]pyrimidin-3-yl)-N,N-dipropylacetamide] | – | – | 64.5 ± 1.19 | 53.4 ± 2.02 | 39.8 ± 0.74 | 24.6 ± 3.13 | 19.8 ± 1.19 | 15.2 | 37.1 | –
0.49 | CCc1cc(CC)n2nc(-c3ccc(F)cc3)c(CC(=O)N(CC)Cc3ccccc3OC)c2n1 [GMA 16, 2-(5,7-diethyl-2-(4-fluorophenyl)pyrazolo [1,5-a]pyrimidin-3-yl)-N-ethyl-N-(2-methoxybenzyl)acetamide] | – | – | – | – | – | – | – | – | – | –
25.4 | CCc1cc(CC)n2nc(-c3ccc(F)cc3)c(CC(=O)N(CCOC)CCOC)c2n1 [GMA 12, 2-(5,7-Diethyl-2-(4-fluorophenyl)pyrazolo [1,5-a]pyrimidin-3-yl)-N,N-bis(2-methoxyethyl) acetamide] | – | – | – | – | – | – | – | – | – | –
0.54 | CCc1cc(CC)n2nc(-c3ccc(F)cc3)c(CC(=O)N(CC)Cc3cc(OC)ccc3OC)c2n1 [GMA 17, 2-(5,7-diethyl-2-(4-fluorophenyl)pyrazolo [1,5-a]pyrimidin-3-yl)-N-(2,5-dimethoxybenzyl)-N-ethylacetamide] | – | – | – | – | – | – | – | – | – | –
0.19 | CCc1cc(CC)n2nc(-c3ccc(F)cc3)c(CC(=O)N(CC)CCOC)c2n1 [GMA 11, 2-(5,7-diethyl-2-(4-fluorophenyl)pyrazolo [1,5-a]pyrimidin-3-yl)-N-ethyl-N-(2-methoxyethyl) acetamide] | – | – | 61.7 ± 0.71 | 58.3 ± 3.12 | 39.5 ± 0.63 | 33.5 ± 2.28 | 28.9 ± 1.12 | 36.2 | 87.8 | –
